In article PMC8589421, “Impact of Type II LRRK2 inhibitors on signaling and mitophagy” (Biochemical Journal, 2021):

Tests used:
[1] = tested on: Rab29 mediated relocalization of LRRK2 to the Golgi apparatus; assay: Rab29 mediated recruitment of LRRK2 to the Golgi, immunofluorescence in HeLa cells; type: cell-based, human; settings: 5 μM GZD-824 or 1 μM GSK3357679A for 4 h
Protocol: HeLa cells were seeded on coverslips and transfected with the plasmid reported in each image 24 h before fixation. Following the treatments with the inhibitors described in figure legends, cells were washed twice in DPBS and fixed with 3.7% Paraformaldehyde pH 7.3 (Agar scientific, #R1026), 200 mM HEPES, for 20 min. Cells were then washed twice with DMEM, 20 mM HEPES, and then incubated for 10 min with DMEM, 10 mM HEPES. After two washes in DPBS, fixed cells were permeabilized with 0.2% (by vol) NP-40 in DPBS for 10 min. Cells were blocked using 1% (by mass) BSA in DPBS, then incubated for 1 h with primary antibodies diluted in 1% (by mass) BSA in DPBS, washed three times in 0.2% (by mass) BSA in DPBS, and incubated for 1 h with secondary antibodies. The coverslips were washed three times with 0.2% (by mass) BSA in PBS. Coverslips were washed once more in double distilled water and mounted on slides (VWR, #631-0909) using ProLong™ Diamond Antifade Mountant (ThermoFisher, #P36961). For localization of the Golgi compartment, Golgin-97 was stained with rabbit anti-GM97 (CST, #D8P2K) and visualized with goat anti-rabbit conjugated to Alexa Fluor 405 (Life Technologies, #P10994). HA-Rab29 was stained with mouse anti-HA (Abcam, clone HA.C5 #ab18181) and visualized with goat anti-mouse conjugated to Alexa Fluor 594 (Life Technologies, #A-11032). […]

[2] = tested on: basal mitophagy, LRRK2 knock-out MEFs; assay: mito-QC basal mitophagy in LRRK2 knock-out primary MEFs; type: cell-based, mouse; settings: 24 h
Protocol: (§1) To assess mitophagy, wild type, G2019S knock in, and LRRK2 knock out primary mouse embryonic fibroblasts (MEFs) were derived, from time-mated pregnant females at E12.5 as previously described. Briefly, cells were plated on glass coverslips and incubated with DMEM (Gibco, 11960-044) supplemented with 10% FBS, 2 mM L-Glutamine (Gibco, 2503-081), 1% non-essential amino acids (Gibco, 11140-035), 1% Antibiotics (Penicillin/Streptomycin 100 U/ml penicillin and 100 µg/ml streptomycin; Gibco), and 150 µM β-Mercaptoethanol (Gibco, 21985-023) at 37°C under a humidified 5% CO2 atmosphere. […] GSK3357679A 100 nM (Ding et al., in prep) was used as a positive control. At the end of the treatment, MEFs were briefly washed twice in DPBS (Gibco, 14190-094), and fixed in 3.7% Paraformaldehyde pH 7.00 (Sigma, P6148), 200 mM HEPES, for 20 min. Cells were then washed two times with DMEM, 10 mM HEPES, and then incubated for 10 min with DMEM, 10 mM HEPES. […] Images were acquired using a Nikon Eclipse Ti-S fluorescence microscope with a 63× objective. Images were analyzed using the mito-QC counter as previously described. Experiments were performed in 3–4 independent experiments and data was analyzed with a one-way ANOVA followed by a Dunnett's multiple comparison test using the GraphPad Prism software (version 8.4.3 (686)).

[3] = tested on: Dundee panel of 140 protein kinases; assay: Kinase profiling; type: biochemical
From the text: […] Results for each kinase are presented as the mean kinase activity ±S.D. for an assay undertaken in duplicate relative to a control kinase assay in which the inhibitor was omitted. Abbreviations and assay conditions used for each kinase are available (http://www.kinase-screen.mrc.ac.uk/services/premier-screen).

[4] = tested on: T1, LRRK2 14-3-3 binding; assay: Analysis of 14-3-3 binding in HEK293 cells overexpressing wild-type LRRK2; type: cell-based, human; settings: 5 μM GZD-824 for 4 h, 1 μM GSK3357679A
T1 construct: host or cells: HEK293
Protocol: This was undertaken as described previously. Briefly, wild-type FLAG-LRRK2 was transiently expressed in HEK293 cells with HA-Rab29. Twenty-four hours post-transfection cells were lysed with lysis buffer and snap frozen. LRRK2 was immunoprecipitated from 4 mg of lysate using 20 μl anti-FLAG-M2 agarose beads (Sigma, #A2220) for 2 h in rotation at +4°C. Immunoprecipitates were washed once with lysis buffer supplemented with 0.5% (by vol) Nonidet P-40 (instead of Triton X-100) and 0.5 M NaCl followed by two washes. Samples were eluted in 2× LDS sample buffer (20 µl per 10 µl of resin) and heated at 70°C for 10 min. After centrifugation through 0.22 µm Spin X filter, the eluted protein was subjected to immunoblotting with the indicated antibodies. An amount of 10 μl of the final reaction mixture was needed for the detection of binding of endogenous 14-3-3 and 1 µl for detection of LRRK2.

[5] = tested on: LRRK2 Ser935 phosphorylation; assay: Ser935 phosphorylation in HEK293 cells overexpressing wild-type LRRK2; type: cell-based, human; settings: 1 μM
Protocol: Cell extracts were mixed with a quarter of a volume of NuPage LDS Sample buffer 4× Invitrogen and heated at 95°C for 5 min. […] At the end of electrophoresis, proteins were electrophoretically transferred onto the nitrocellulose membrane (GE Healthcare, Amersham Protran Supported 0.45 µm NC) at 100 V for 90 min on ice in the transfer buffer (48 mM Tris–HCl and 39 mM glycine supplemented with 20% methanol). Transferred membrane was blocked with 5% (w/v) skim milk powder dissolved in TBS-T [20 mM Tris–HCl, pH 7.5, 150 mM NaCl and 0.1% (v/v) Tween 20] at room temperature for 1 h. The membrane was typically cropped into three pieces, namely the ‘top piece’ (from the top of the membrane to 75 kDa), the ‘middle piece’ (between 75 and 30 kDa) and the ‘bottom piece’ (from 30 kDa to the bottom of the membrane). All primary antibodies were used at 1 μg/ml final concentration and incubated in TBS-T containing 5% (by mass) bovine serum albumin with exception of α-tubulin and GAPDH antibodies that were diluted 1 : 5000 and 1 : 2000, respectively. The top piece was incubated with the indicated rabbit anti-LRRK2 phosphorylation site antibody multiplexed with mouse anti-LRRK2 C-terminus total antibody. […] Protein bands were acquired via near infrared fluorescent detection using the Odyssey CLx imaging system and quantified using the Image Studio software. […]

[6] = target: T2, Flag-LRRK2[G2019S] (Homo sapiens, UniProt Q5S007, G2019S); assay: IC50 LRRK2 Nictide assay, G2019S; type: biochemical; settings: read-out: IC50 LRRK2 G2019S (100 µM ATP), Nictide peptide substrate, value ± SD
T2 construct: towards full length wild type and G2019S pathogenic LRRK2 mutant in a biochemical assay; Flag (N); purchased ThermoFisher Scientific A15201
T2 sequence (Q5S007 whole entry G2019S): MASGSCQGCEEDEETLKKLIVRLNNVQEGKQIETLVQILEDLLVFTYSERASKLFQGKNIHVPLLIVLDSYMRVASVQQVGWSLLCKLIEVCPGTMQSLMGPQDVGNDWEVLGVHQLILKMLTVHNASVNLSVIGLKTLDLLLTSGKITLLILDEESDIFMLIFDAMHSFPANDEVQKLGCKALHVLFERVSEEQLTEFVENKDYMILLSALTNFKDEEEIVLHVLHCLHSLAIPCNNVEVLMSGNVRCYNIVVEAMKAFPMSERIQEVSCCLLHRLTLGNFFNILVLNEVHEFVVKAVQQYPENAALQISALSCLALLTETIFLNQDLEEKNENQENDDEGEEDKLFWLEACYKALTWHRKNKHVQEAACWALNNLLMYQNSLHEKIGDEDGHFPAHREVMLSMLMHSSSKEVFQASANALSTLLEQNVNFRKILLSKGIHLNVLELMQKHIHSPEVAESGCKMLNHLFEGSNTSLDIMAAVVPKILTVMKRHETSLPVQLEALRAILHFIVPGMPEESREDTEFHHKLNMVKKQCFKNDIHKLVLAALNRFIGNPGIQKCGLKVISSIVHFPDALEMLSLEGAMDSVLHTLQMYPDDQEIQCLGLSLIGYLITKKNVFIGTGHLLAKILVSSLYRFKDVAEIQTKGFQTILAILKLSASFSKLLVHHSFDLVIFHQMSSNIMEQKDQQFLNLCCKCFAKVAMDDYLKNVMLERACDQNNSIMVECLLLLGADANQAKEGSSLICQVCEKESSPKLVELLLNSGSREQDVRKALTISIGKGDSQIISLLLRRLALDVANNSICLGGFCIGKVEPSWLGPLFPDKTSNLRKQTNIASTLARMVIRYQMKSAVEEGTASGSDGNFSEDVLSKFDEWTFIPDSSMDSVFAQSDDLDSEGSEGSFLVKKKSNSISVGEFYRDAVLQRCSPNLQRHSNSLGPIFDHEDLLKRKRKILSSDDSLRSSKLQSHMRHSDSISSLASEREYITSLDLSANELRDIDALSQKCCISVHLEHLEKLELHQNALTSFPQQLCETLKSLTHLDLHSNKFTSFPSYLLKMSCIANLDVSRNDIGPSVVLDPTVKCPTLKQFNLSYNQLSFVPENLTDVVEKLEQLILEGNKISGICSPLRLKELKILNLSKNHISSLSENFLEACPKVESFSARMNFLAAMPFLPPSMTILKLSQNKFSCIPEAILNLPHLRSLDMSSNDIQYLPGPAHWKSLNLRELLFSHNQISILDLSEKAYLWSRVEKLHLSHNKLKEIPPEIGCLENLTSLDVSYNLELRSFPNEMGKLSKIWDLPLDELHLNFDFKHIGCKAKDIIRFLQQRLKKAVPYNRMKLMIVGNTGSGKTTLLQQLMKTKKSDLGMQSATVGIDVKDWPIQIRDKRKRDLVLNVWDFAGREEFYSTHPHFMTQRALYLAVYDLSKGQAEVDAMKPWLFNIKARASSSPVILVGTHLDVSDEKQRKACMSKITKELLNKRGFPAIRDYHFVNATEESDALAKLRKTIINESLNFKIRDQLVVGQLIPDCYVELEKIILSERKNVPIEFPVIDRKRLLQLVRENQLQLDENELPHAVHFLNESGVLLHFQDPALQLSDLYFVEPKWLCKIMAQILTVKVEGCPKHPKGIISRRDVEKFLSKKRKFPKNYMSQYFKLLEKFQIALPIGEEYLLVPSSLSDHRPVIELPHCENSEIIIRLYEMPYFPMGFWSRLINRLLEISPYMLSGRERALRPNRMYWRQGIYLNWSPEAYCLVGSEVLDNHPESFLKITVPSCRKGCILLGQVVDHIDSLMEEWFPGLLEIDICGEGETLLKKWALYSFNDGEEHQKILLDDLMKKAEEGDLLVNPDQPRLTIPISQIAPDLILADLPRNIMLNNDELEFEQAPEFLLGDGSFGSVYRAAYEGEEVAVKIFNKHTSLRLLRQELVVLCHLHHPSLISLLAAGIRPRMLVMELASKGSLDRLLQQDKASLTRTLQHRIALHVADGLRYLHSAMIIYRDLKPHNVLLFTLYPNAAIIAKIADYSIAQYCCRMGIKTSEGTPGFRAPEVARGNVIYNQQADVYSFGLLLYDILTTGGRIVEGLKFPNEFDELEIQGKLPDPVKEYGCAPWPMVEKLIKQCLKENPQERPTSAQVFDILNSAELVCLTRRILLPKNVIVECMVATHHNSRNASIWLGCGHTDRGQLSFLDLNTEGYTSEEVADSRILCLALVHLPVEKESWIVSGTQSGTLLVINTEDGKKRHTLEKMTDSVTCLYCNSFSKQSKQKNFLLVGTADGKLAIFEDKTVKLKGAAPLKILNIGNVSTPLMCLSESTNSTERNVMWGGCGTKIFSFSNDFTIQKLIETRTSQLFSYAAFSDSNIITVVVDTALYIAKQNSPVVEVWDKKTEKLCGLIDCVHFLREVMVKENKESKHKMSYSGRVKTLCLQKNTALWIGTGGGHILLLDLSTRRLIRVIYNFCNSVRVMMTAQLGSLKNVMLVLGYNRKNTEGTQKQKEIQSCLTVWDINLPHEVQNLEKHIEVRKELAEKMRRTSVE

[7] = target: T3, wild-type Flag-LRRK2 (Homo sapiens, UniProt Q5S007); assay: IC50 LRRK2 Nictide assay, wild type; type: biochemical
T3 construct: Human recombinant full length wild-type Flag-LRRK2 (#A15198); Flag (N); purchased ThermoFisher Scientific A15198
T3 sequence (Q5S007 whole entry): as the sequence (Q5S007 whole entry G2019S) above, with S2019G counted along it
Protocol: (#A15201) purchased from ThermoFisher Scientific. […] After incubation for 30 min at room temperature, reactions were terminated by harvesting the whole reaction volume onto P81 phosphocellulose filter plate and immersion in 50 mM phosphoric acid. […] IC50 values were calculated with GraphPad Prism using non-linear regression analysis.

[8] = tested on: basal mitophagy, LRRK2[G2019S] MEFs; assay: mito-QC basal mitophagy in LRRK2[G2019S] knock-in primary MEFs; type: cell-based, mouse; settings: 24 h, 30–300 nM GZD-824, GSK3357679A 100 nM positive control
Protocol: as §1

[9] = tested on: basal mitophagy, wild type MEFs; assay: mito-QC basal mitophagy in wild-type primary MEFs; type: cell-based, mouse; settings: 24 h, 30–300 nM GZD-824, GSK3357679A 100 nM positive control
Protocol: as §1

Q: With GSK3357679A as the substance, how does the “impact on Rab29 mediated recruitment of LRRK2 to the Golgi” value [1] read?
A: no impact

Q: And the “impact on basal mitophagy in LRRK2 knock-out cells” value [2]?
A: neither GZD-824 or GSK3357679A impacted basal mitophagy

Q: And the “kinase selectivity (panel of 140 protein kinases)” value [3]?
A: highly selective

Q: And the “impact on 14-3-3 binding to LRRK2” value [4]?
A: ablated

Q: What about the “effect on Ser935 phosphorylation” value [5] of the same substance?
A: ablated

Q: And the IC50 [6]?
A: 0.34 nM

Q: And the “IC50 LRRK2 WT (100 µM ATP)” value ([7]; Nictide peptide substrate, value ± SD)?
A: sub-nanomolar potency

Q: What about the IC50 ([7]; read-out: IC50 LRRK2 WT (100 µM ATP), Nictide peptide substrate, value ± SD) of the same substance?
A: 0.3 nM

Q: What about the “stimulation of basal mitophagy” value [8] of the same substance?
A: ~2 fold

Q: And the “stimulation of basal mitophagy” value [9]?
A: ~2 fold
